According to patent publication US20100279997A1, “ANALGESIC THAT BINDS FILAMIN A” (priority 2009, published 2010):

Target: T1, μ opiate receptor (MOR) (Rattus norvegicus, UniProt P33535)
T1 construct: from tissue; host or cells: striatal tissue (membrane preparation)
Experiment: MOR agonist activity, [35S]GTPγS binding assay using striatal membranes
Format: biochemical
Settings: for [35S]GTPγS binding to Gαo, FLNA-binding compound as agonist 0.1 μM: 0.1 μM compound; for [35S]GTPγS binding to Gαo, FLNA-binding compound as agonist 0.1 μM / [35S]GTPγS binding to Gαo, FLNA-binding compound as agonist 1 μM: striatal membranes; for [35S]GTPγS binding to Gαo, FLNA-binding compound as agonist 1 μM + BFNA: 1 μM compound + 1 μM β-funaltrexamine; for [35S]GTPγS binding to Gαo, FLNA-binding compound as agonist 1 μM: 1 μM compound; for % DAMGO + BFNA: relative to DAMGO + BFNA; for % DAMGO (0.1 μM) / % DAMGO (1 μM): relative to DAMGO
Protocol: To assess the μ opiate receptor (MOR) agonist activity of positive compounds from the FLNA screening, compounds were tested in a [^35S]GTPγS binding assay using striatal membranes.
Striatal tissue was homogenized in 10 volumes of ice cold 25 mM HEPES buffer, pH 7.4, which contained 1 mM EGTA, 100 mM sucrose, 50 μg/ml leupeptin, 0.04 mM PMSF, 2 μg/ml soybean trypsin inhibitor and 0.2% 2-mercaptoethanol. The homogenates were centrifuged at 800×g for 5 minutes and the supernatants were centrifuged at 49,000×g for 20 minutes. The resulting pellets were suspended in 10 volume of reaction buffer, which contained 25 mM HEPES, pH 7.5, 100 mM NaCl, 50 μg/ml leupeptin, 2 μg/ml soybean trypsin inhibitor, 0.04 mM PMSF and 0.02% […].
The resultant striatal membrane preparation (200 μg) was admixed and maintained (incubated) at 30° C. for 5 minutes in reaction buffer as above that additionally contained 1 mM MgCl2 and 0.5 nM [^35S]GTPγS (0.1 μCi/assay, PerkinElmer Life and Analytical Sciences) in a total volume of 250 μl and continued for 5 minutes in the absence or presence of 0.1-10 μM of an assayed compound of interest. The reaction was terminated by dilution with 750 μl of ice-cold reaction buffer that contained 20 mM MgCl2 and 1 mM EGTA and immediate centrifugation at 16,000×g for 5 minutes.
The resulting pellet was solubilized by sonicating for 10 seconds in 0.5 ml of immunoprecipitation buffer containing 0.5% digitonin, 0.2% sodium cholate and 0.5% NP-40. Normal rabbit serum (1 μl) was added to 1 ml of lysate and incubated at 25° C. for 30 minutes. Nonspecific immune complexes were removed by incubation with 25 μl of protein A/G-conjugated agarose beads at 25° C. for 30 minutes followed by centrifugation at 5,000×g at 4° C. for 5 minutes. The supernatant was divided and separately incubated at 25° C. for 30 minutes with antibodies raised against Gao proteins (1:1,000 dilutions).
The immunocomplexes so formed were collected by incubation at 25° C. for 30 minutes with 40 μl of agarose-conjugated protein A/G beads and centrifugation at 5,000×g at 4° C. for 5 minutes. The pellet was washed and suspended in buffer containing 50 mM Tris-HCl, pH 8.0, and 1% NP-40. The radioactivity in the suspension was determined by liquid scintillation spectrometry. […] DAMGO (H-Tyr-D-Ala-Gly-N-MePhe-Gly-OH; 1 or 10 μM) was used as a positive control.

T1 sequence (P33535 whole entry): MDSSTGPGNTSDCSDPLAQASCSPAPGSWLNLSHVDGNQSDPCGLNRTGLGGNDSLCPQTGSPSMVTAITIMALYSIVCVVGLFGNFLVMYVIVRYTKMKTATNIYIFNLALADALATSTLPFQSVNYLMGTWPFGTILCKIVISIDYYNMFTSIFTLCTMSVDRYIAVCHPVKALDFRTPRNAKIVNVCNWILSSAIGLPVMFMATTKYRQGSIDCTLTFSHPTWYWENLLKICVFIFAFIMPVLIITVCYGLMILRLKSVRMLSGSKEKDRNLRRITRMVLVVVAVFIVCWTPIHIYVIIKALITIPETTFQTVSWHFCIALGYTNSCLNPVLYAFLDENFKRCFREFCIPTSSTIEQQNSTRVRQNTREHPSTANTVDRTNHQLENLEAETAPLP

SMILES	[35S]GTPγS binding to Gαo, FLNA-binding compound as agonist 0.1 μM	[35S]GTPγS binding to Gαo, FLNA-binding compound as agonist 1 μM + BFNA	[35S]GTPγS binding to Gαo, FLNA-binding compound as agonist 1 μM	% DAMGO + BFNA	% DAMGO (0.1 μM)	% DAMGO (1 μM)
COc1ccc(N2CCN(CC(O)COC3CC(C)CCC3C(C)C)CC2)c(OC)c1 (stereo not drawn) [Compound A0012]	149.3%	122.4%	185.7%	–	–	–
CC1CN(CC(O)COc2cc(F)cc(F)c2)CC(C)O1 (stereo not drawn) [Compound A0046]	257.5%	140.0%	354.1%	189.4%	131.2%	128.3%
CC1CCC(C(C)C)C(OCC(O)CN2CCCCC2)C1 (stereo not drawn) [Compound A0005]	179.7%	23.5%	239.2%	–	–	–
OC(COc1cccc(C(F)(F)F)c1)CN1CCc2ccccc2C1 (stereo not drawn) [Compound A0054]	74.9%	114.1%	159.2%	–	–	–
CC1CCC(C(C)C)C(OCC(O)CN2CCC2)C1 (stereo not drawn) [Compound A0015]	110.9%	62.5%	150.1%	–	–	–
CC1CN(CC(O)COc2ccc(Cl)cc2)CC(C)O1 (stereo not drawn) [Compound A0047]	233.0%	116.5%	255.0%	–	–	–
CC1CCC(C(C)C)C(OCC(O)CN2CCSC2)C1 (stereo not drawn) [Compound A0002]	155.6%	6.5%	199.4%	–	–	–
CC1CN(CC(O)COc2ccccc2)CC(C)O1 (stereo not drawn) [Compound A0025]	58.6%	52.2%	138.7%	–	–	–
COc1ccc(OCC(O)CN2CCOc3ccccc32)cc1 (stereo not drawn) [Compound A0076]	79.8%	41.2%	172.6%	119.4%	46.4%	78.6%
CC1CCC(C(C)C)C(OCC(O)CN2CCN(CCCN3CCOCC3)CC2)C1 (stereo not drawn) [Compound A0026]	140.7%	120.8%	179.8%	–	–	–
CC1CCC(C(C)C)C(OCC(O)CN2CCN(C)CC2)C1 (stereo not drawn) [Compound A0009]	70.2%	93.9%	126.4%	–	–	–
CC1CCC(C(C)C)C(OCC(O)CN2CCSCC2)C1 (stereo not drawn) [Compound A0003]	176.8%	17.1%	276.0%	–	–	–
Cc1cccc(OCC(O)CN2CC(C)OC(C)C2)c1 (stereo not drawn) [Compound A0030]	133.4%	165.2%	287.8%	–	–	–
CC1CCC(C(C)C)C(OCC(O)CN2CCN(CCc3ccccc3)CC2)C1 (stereo not drawn) [Compound A0020]	168.6%	67.4%	217.4%	–	–	–
CN(C)c1cccc(OCC(O)CN2CCc3ccccc3C2)c1 (stereo not drawn) [Compound A0050]	151.0%	81.0%	189.3%	–	–	–
CC1CCC(C(C)C)C(OCC(O)CN2CCC(=O)C(C)C2)C1 (stereo not drawn) [Compound A0056]	115.6%	17.4%	129.6%	–	–	–
